This note sets out measurements from patent US9993001B2, “Herbicidal composition” (ISHIHARA SANGYO KAISHA, LTD., priority 2014, dated 2018).

Structures are written as SMILES.

Common to all, as to type: in vivo
In assay [1] the test system is barnyardgrass (Echinochloa crus-qalli L.). In words: Test Example 5: adzuki bean field, soil treatment, metobromuron + fluazifop-P-butyl. As to conditions: Echinochloa, soil, read-out: Growth inhibition rate of barnyardgrass (%) Measured value. The source says: (§1) When the herbicidal activity in a case where two active ingredients are combined, is larger than the simple sum of the respective herbicidal activities of the two active ingredients (the expected activity), it is called a synergistic effect. The activity expected by the combination of two active ingredients can be calculated as follows (Colby S. R., “Weed”, vol. 15, p. 20-22, 1967). E=α+β−(α×β[…]) where α: growth inhibition rate when treated with x (g/ha) of herbicide X, • β: growth inhibition rate when treated with y (g/ha) of herbicide Y, • E: growth inhibition rate expected when treated with x (g/ha) of herbicide X and y (g/ha) of herbicide Y.
(§2) On the 19th day after treatment, the state of growth of barnyardgrass was visually observed and evaluated in accordance with the following standards. The growth inhibition rate (%) [measured value] and the growth inhibition rate (%) [calculated value] calculated by the Colby's method, are shown in Table 2.
(§3) Growth inhibition rate (%)=inhibition rate) (%) of 0 (equivalent to the non-treated area) to 100 (complete kill) […]
On the 39th day after treatment, the state of growth of barnyardgrass (Echinochloa crus-qalli L.) which occurred naturally, was visually observed and evaluated in the same manner as in Test Example 1.

The test system of assay [2] is annual bluegrass (Poa annua L.). In words: Test Example 19: pot, soil treatment, metobromuron + chlorpropham. To be noted: soil, read-out: Growth inhibition rate of annual bluegrass (%) Measured value.
The subject of assay [3] is common lambsquarters (Chenopodium album L.). Description: Test Example 8: corn field, soil treatment, metobromuron + S-metolachlor. As to conditions: soil, read-out: Growth inhibition rate of common lambsquarters (%) Measured value.
Description: as §1, §2, §3
On the 28th day after treatment, the state of growth of common lambsquarters (Chenopodium album L.) which occurred naturally, was visually observed and evaluated in the same manner as in Test Example 1.

Assay [4] has the same test system. Description: Test Example 30: pot, soil treatment, metobromuron + thiobencarb. To be noted: soil, read-out: Growth inhibition rate of common lambsquarters (%) Measured value.
Description: as §1, §2
(§4) Growth inhibition rate (%)=inhibition rate) (%) of 0 (equivalent to the non-treated area) to 100 (complete kill)
Soil was put into a 1/300,000 ha pot, and seeds of common lambsquarters (Chenopodium album L.) were sown. On the day after seeding, predetermined amounts of SC containing metobromuron as active ingredient (same as in Test Example 1) and EC containing thiobencarb as active ingredient (trade name: Saturn NYUZAI, manufactured by KUMIAI CHEMICAL INDUSTRY Co., Ltd.) were diluted with water corresponding to 1,000 L per hectare and applied for soil treatment.
On the 20th day after treatment, the state of growth of common lambsquarters was visually observed and evaluated in the same manner as in Test Example 1.

For assay [5], the system named is large crabgrass (Digitaria sanquinalis L.). Description: Test Example 29: pot, soil treatment, metobromuron + indanofan. To be noted: soil, read-out: Growth inhibition rate of large crabgrass (%) Measured value.
Description: as §1, §2, §4
Soil was put into a 1/300,000 ha pot, and seeds of large crabgrass (Digitaria sanquinalis L.) were sown. On the day after seeding, predetermined amounts of SC containing metobromuron as active ingredient (same as in Test Example 1) and WP containing indanofan as active ingredient were diluted with water corresponding to 1,000 L per hectare and applied for soil treatment.
On the 20th day after treatment, the state of growth of large crabgrass was visually observed and evaluated in the same manner as in Test Example 1.

On to `CON(C)C(=O)Nc1ccc(Br)cc1` [Metobromuron, 3-(4-bromophenyl)-1-methoxy-1-methylurea], for which the figures for the inhibition at 1000 g/ha in assay [1] and in assay [3] were 53% and 78%, respectively. The inhibition at 375 g/ha in assay [2] and in assay [5] was 50% in each case. For the same compound, the inhibition at 250 g/ha in assay [4] was 78%; in assay [5] it was 30%. In assay [5], the inhibition at 562.5 g/ha worked out at 80%.
